Reference: publication PMC13534789, “Molecular Glue Degraders Enhance CAPRIN1‐Dependent Lysosomal Degradation of APP and Reduce Amyloid β in Alzheimer's Disease” (Advanced Science, 2026)
Like-named read-outs stand apart in the source and are kept apart here.

What was measured:
[1] = system: Aβ42; test: Aβ42 ELISA of conditioned media, iPSC-derived neurons; assay type: cell-based, human; settings: for IC50: Homo sapiens, Neuron
Text: The human iPSC SAD2.3 (UCSD234i‐SAD2‐3) and HVRDi002A were purchased from Wicell, UKBi011A from the European Bank for induced pluripotent stem cells, Sigma, AG25367, AG25370, AG27606, AG27608, AG27609, AG28049, AG28262, and AG27602 from Coriell. All iPSCs were maintained and expanded on Matrigel (Growth factor reduced Matrigel matrix, Corning) in mTeSR1 complete medium (mTeSR1 medium + 5X supplement, Stem Cell Technologies). For iPSC‐Ns transgene delivery, each iPSC line was transduced with lentiviral particles for pLVX‐UbC‐rtTA‐Ngn2:2A:Ascl1 […]), followed by selection in the presence of puromycin ([…], Gibco). To initiate conversion, iPSCs were differentiated into neurons using the established Ascl1/Mash1 (33) and Neurogenin 2 (Ngn2) (34) protocols.
iPSC‐Ns or HEK‐APP695WT were treated with drugs, and secreted Aβ42 peptides inculture soup were quantified using the Human Amyloid β1‐42 human ELISA kit (Thermo Fisher) according to the manufacturer's protocol. Mouse brain extraction was performed as previously described, with minor modifications. Mouse brain tissues were homogenized at a 1:10 weight‐to‐volume ratio in Tris‐buffered saline (TBS; 50 mM Tris, pH 7.4, 150 mM NaCl) supplemented with 2 mM EDTA and protease inhibitors. TBS‐homogenized brains were centrifuged for 1 h at 16 000 g. To extract total Aβ, including insoluble fractions, formic acid was added to a final concentration of 70%, and the samples were thoroughly mixed by pipetting. Homogenates were centrifuged at 100 000 g for 1 h at 4°C, and the resulting supernatants were collected. Prior to quantification, formic acid‐containing samples were neutralized with 1 M Tris base (pH 11). Aβ40 and Aβ42 levels were measured using human‐specific ELISA kits (Invitrogen) and normalized to total protein concentrations determined by the BCA assay (Thermo Scientific). For Aβ quantification in 3D organoids, 3D organoids’ processing and ELISA analysis were performed with minor modifications from previously described protocols. Briefly, cerebral organoids were lysed in RIPA buffer supplemented with protease and phosphatase inhibitor cocktails (Sigma), followed by sonication and incubation on ice for 60 min. Lysates were centrifuged at 13 000 rpm for 1 h at 4°C, and the supernatants were collected as the RIPA‐soluble fraction. The remaining pellets were resuspended in 70% formic acid, sonicated, and subsequently neutralized with Tris buffer to obtain the formic acid‐solubilized fraction. Aβ42 levels in both fractions were measured using human‐specific ELISA kits (Thermo Fisher) according to the manufacturer's instructions. Formic acid extracts were appropriately neutralized prior to ELISA. Aβ levels were normalized to total protein concentration determined by BCA assay.

[2] = target: T1, CAPRIN1 (Homo sapiens, UniProt Q14444); test: SPR, compound onto CAPRIN1 alone; assay type: binding; settings: immobilized CAPRIN1
T1 construct: 10xHis (followed by a 3C site) (N); made in house; host or cells: Tni (Hi5) insect cells, baculovirus
Description: SPR experiments were conducted to investigate the interaction between APP695 and CAPRIN1 proteins using a Biacore T200 instrument (Cytiva). Both proteins were expressed in Tni (Hi5) insect cells and purified to homogeneity via tandem affinity and ion‐exchange. Protein purity and integrity were confirmed by SDS‐PAGE and size‐exclusion chromatography prior to analysis. All experiments were performed in a running buffer consisting of 50 mM HEPES at pH7.0, 100 mM KCl, 10% glycerol, and 0.01% (v/v) Tween‐20 supplemented with 0.1% (w/v) Sarkosyl (pH 7.4). APP695 was serially diluted in running buffer to final concentrations of 15, 5, 1, and 0.3 µM. Chip Preparation: A CM5 sensor chip (Cytiva) was activated using a 1:1 (v/v) mixture of 0.1 M N‐hydroxysuccinimide (NHS) and 0.1 M N‐ethyl‐N′‐(3‐dimethylaminopropyl) carbodiimide (EDC) to generate reactive ester groups. CAPRIN1 was diluted to 50 µg/mL in 10 mM Hepes‐KOH buffer (pH 6.0) and immobilized on the chip surface via standard amine coupling to achieve immobilization. Unreacted sites were blocked with 1 M ethanolamine‐HCl (pH 8.5). A reference flow cell was prepared similarly but without protein immobilization to control for non‐specific binding and bulk refractive index changes. Binding assay: Binding interactions were measured at 25°C with a flow rate of 30 µL/min. […]

[3] = 120 h, AG27606 neurons, 5-day treatment, ELISA, normalized to DMSO, read-out: IC50, Aβ42 dose–response

T1 sequence (Q14444 whole entry): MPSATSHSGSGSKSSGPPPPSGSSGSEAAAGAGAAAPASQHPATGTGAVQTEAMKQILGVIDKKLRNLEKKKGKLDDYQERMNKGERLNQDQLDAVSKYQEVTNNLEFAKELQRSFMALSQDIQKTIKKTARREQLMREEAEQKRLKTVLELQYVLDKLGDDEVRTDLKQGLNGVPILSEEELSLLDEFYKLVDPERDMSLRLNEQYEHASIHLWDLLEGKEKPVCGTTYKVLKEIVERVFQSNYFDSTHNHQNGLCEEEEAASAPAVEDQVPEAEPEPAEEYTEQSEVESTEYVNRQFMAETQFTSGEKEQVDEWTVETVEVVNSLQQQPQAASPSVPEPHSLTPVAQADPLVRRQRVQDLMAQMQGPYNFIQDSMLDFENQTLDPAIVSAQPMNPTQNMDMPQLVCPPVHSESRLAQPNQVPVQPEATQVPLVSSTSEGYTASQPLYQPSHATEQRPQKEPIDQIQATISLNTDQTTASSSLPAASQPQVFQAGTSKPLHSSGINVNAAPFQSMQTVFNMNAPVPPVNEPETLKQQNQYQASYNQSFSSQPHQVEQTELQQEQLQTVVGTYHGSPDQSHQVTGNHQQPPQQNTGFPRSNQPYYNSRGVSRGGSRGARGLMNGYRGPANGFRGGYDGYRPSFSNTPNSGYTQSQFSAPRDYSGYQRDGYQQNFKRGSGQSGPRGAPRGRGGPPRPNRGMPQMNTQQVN

SMILES | Aβ42 secretion across iPSC-Ns from sAD, fAD and non-AD donors ([1]; 10 µM, 72 h) | IC50 [1, 3] [nM] | Interaction with CAPRIN1 alone [2] | IC50 ([1]; 120 h, sAD2.3 neurons, 5 days treatment, ELISA, read-out: IC50, relative Aβ42 levels in conditioned media) [nM] | IC50 ([1]; SAD2.3-Ns and AG27606-Ns, read-out: IC50 values, Aβ42 secretion) [nM] | Aβ42 levels in culture media ([1]; sAD2.3 neurons, 10 µM, 72 h)
COc1cccc(NC(=O)Nc2nc3ccc(C(=O)N4CCOCC4)cc3s2)c1 [compound 0152] | consistently reduced both APP and Aβ42 levels | 900 | no noticeable interaction |  |  | 
N#Cc1cccc(NC(=O)Nc2nc3ccc(C(=O)N4CCOCC4)cc3s2)c1 [compound 0043] | effectively lowered Aβ42 secretion | 2100 | no noticeable interaction | 1800 | 1800 to 2100 | reduced Aβ42 levels
